In patent publication US8097585B2, “Methods of treating inflammation by administration of heme oxygenase-1 and products of heme degradation” (priority 2002, dated 2012):
Structures can show the parent of a compound that is named as a salt.

Columns and labels:
[1] = system: neointimal formation in carotid arteries; experiment: Carotid balloon injury model, neointimal formation; assay type: in vivo, Lewis Rats; conditions: 14 days
Source text: Animals. Adult male Lewis Rats (LEW/CrlBR; Charles River Laboratories, Wilmington, Mass.) weighing 350-400 g were used in the balloon injury model. Animals were housed in accordance with the guidelines from the American Association for Laboratory Animal Care and research protocols were approved by the institutional animal care and use committee of the Beth Israel Deaconess Medical Center, Boston, Mass.
Balloon Injury model. After the exposure of the left common carotid and the left external carotid arteries, a 2F Fogarty catheter (Edwards Lifesciences LLC, Irvine, Calif.) was introduced via the external carotid artery and was advanced into the left common carotid artery, inflated to 2 atmospheres of pressure and pulled back to the point of bifurcation, then deflated. This procedure was repeated three times.
Experimental reagents and design. […]
Histomorphometric analysis. […] Images were analyzed by manual segmentation, tracing intima and media in each section. Areas and diameters were calculated by digital imaging software (AxioVision™, Carl Zeiss, Jena, Germany) as number of pixels corresponding to those areas and diameters. […] 24 sections from each group were statistically analyzed with StatView® software version 5.0 using ANOVA.

COX-2 = experiment: Real time RT-PCR of graft muscularis after SITx, COX-2; assay type: in vivo, LEW rats; conditions: BV treated rats
Experimental: Small Intestinal Transplantation. Orthotopic small intestinal transplantation (SITx) was performed in syngeneic Lewis rats. SITx with caval drainage was performed using a previously described procedure (Murase et al., in Handbook of Animal Models in Transplantation Research, Cramer et al., Eds. CRC Press, Boca Raton, Fla., pp. 203-213 (1994)). […] The graft was perfused via the aortic segment with 5 ml chilled Ringer's lactate solution, and the intestinal lumen was irrigated with 20 ml of cold saline solution containing 0.5% neomycin-sulfate (Sigma, St. Louis, Mo.). […]
SYBR green real time RT-PCR. The effects of administration of biliverdin on transplant-induced pro-inflammatory and anti-inflammatory gene expression were assessed in muscularis extracts by RT-PCR Biliverdin ([…], i.p.) was administered to both the donor and recipient three hours preoperatively. […] Equal aliquots (5 μg) of total RNA from each sample were quantified by spectrophotometry (wavelength […]) and aliquoted at a concentration of 40 ng/μl. Peak mRNA expression was quantified in duplicate by SYBR Green two-step, real-time RT-PCR. […] Real-time PCR data were plotted as the ΔRn fluorescence signal versus the cycle number. […] Quantification of mRNA expression was normalized to GAPDH and calculated relative to control using the comparative CT method (Schmittgen et al., J. Biochem. Biophys. Methods 46(1-2):69-8, 2000). […]

intestinal graft = experiment: Intestinal microvascular blood flow (laser Doppler); assay type: in vivo, LEW rats; conditions: BV
Experimental: Measurement of Intestinal Blood Flow. Intestinal microvascular blood flow was monitored by placing the flat probe of a laser Doppler flowmeter (BLF 21D, Transonic Systems, Ithaca, N.Y.) on the serosal surface of the graft jejunum and ileum adjacent to the mesenteric border. Blood flows in SMA and marginal artery (MA) were also analyzed.
Measurement of Intestinal Blood Flow. Microvascular blood flow for in grafts preserved for 6 hours was measured using a laser Doppler flowmeter (BLF 21D, Transonic Systems, Ithaca, N.Y.) equipped with a flat probe. Intestinal microvascular blood flow was monitored by placing the probe on the serosal surface of the graft jejunum and ileum adjacent to the mesenteric border.

## C=CC1=C(C)/C(=C/C2=NC(=C\c3[nH]c(/C=C4\NC(=O)C(C)=C4C=C)c(C)c3CCC(=O)O)/C(CCC(=O)O)=C2C)NC1=O [biliverdin, biliverdin dihydrochloride]
[1]; local pre-treatment, instilled into common carotid artery for one hour
  neointimal formation after balloon injury: significantly inhibits neointimal formation
[1]; systemic treatment, 50 μmol/kg i.p. at two time points
  neointimal formation after balloon injury: significantly inhibits neointimal formation
COX-2
  reduction of mean relative COX-2 mRNA expression: approximately 50%
Intestinal graft
  microvascular blood flow following transplantation: had no effect
